Results published in a melting point compilation (Tetko et al.; mined from patent text by program, amines drawn as free bases though some values may be those of a salt).

Row | Compound | melting point [°C]
1 | COC(=O)C(=C1NCCCO1)[N+](=O)[O-] | 132 to 133
2 | Cn1cncc1C(O)(c1ccc(C#N)cc1)c1ccc2c(c1)c(-c1cccc(Cl)c1)cc(=O)n2C (stereo unspecified) | 210
3 | COc1cc(CN2CCN(c3ccc(C(=O)NC4CC4)cc3Cl)CC2)cc2c1OC(C)C(=O)N2 (stereo unspecified) | 226
4 | Clc1cccc(Nc2ncnc3[nH]nc(N4CCOCC4)c23)c1 | 275 to 276
5 | Cc1sc(-c2cccc(Br)c2)nc1O | 148 to 149
6 | COC(=O)COc1cc2c(c(Cl)c1Cl)C(=O)C(CCOC(C)=O)C2 (stereo unspecified) | 111 to 113
7 | COc1cc(OCCNC(=O)C2Cc3ccccc3N2S(=O)(=O)c2ccc(-c3cc(C(F)(F)F)ccc3Cl)cc2)ccc1C(=O)O (stereo unspecified) | 98 to 104
8 | COc1cc(COCCc2cccc(NS(=O)(=O)C(F)(F)F)c2)ccc1-c1ccc(Cl)cc1 | 88 to 90
9 | CC(C)(c1ccc(Oc2cccc3c2C(=O)NC3=O)cc1)c1ccc(Oc2cccc3c2C(=O)NC3=O)cc1 | 258 to 260
10 | COc1cc(OC)c(-c2cccs2)cc1C=O | 125 to 126
11 | O=C1C=CC2=CN=C(C3CCCCC3)N3CCC(=C23)N1 | 265 to 266
12 | CC(C)CNC(=O)c1cc([N+](=O)[O-])cc([N+](=O)[O-])c1 | 149 to 155
13 | NC(=O)CNC(=O)c1cccc(-c2ccc(F)c3cc(Cc4cc(F)cc(Cl)c4)sc23)c1 | 166 to 167
14 | COc1cc2c(c3c1OC(C)(C)C3)C(c1ccc(=O)n(-c3ccc4ccccc4n3)c1)=NC(C)(C)C2 | 191 to 192
15 | CCCCc1nc2c(N)nc3cccnc3c2n1CCCCNC(=O)Cn1cc(C)c(O)nc1=O | 242 to 244
16 | CC(=O)Nc1c(Cl)ccc(C)c1Cl | 180 to 182
17 | OC[C@H]1OC[C@@H](n2c(NC3CC3)nc3cc(Cl)c(Cl)cc32)C[C@@H]1O | 98 to 99
18 | Cn1c2cc(Cl)cc(Cl)c2c2cc(C(=O)O)sc21 | 278 to 281
19 | Fc1ccc2nccc(Cl)c2c1 | 71 to 74
20 | C[C@]1(CN2CCN(Nc3ccc(C(F)(F)F)cc3)CC2)Cn2cc([N+](=O)[O-])nc2O1 | 192 to 195
21 | O=CC1=C(Br)CC(F)(Br)C=C1 (stereo unspecified) | 57 to 58
22 | COCC(=O)Nc1c(Cl)c(Cl)cc2nc(OC)c(OC)nc12 | 171 to 173
23 | Fc1cc(F)c2c(c1)CC(n1c(-c3nnn[nH]3)c[nH]c1=S)CC2 (stereo unspecified) | 214 to 215
24 | CN1CCN(c2ccc(Nc3ncc4cc(C#N)c(=O)n(C5CCCC5)c4n3)cc2)CC1 | 290 to 292
25 | CCc1nc2c(-c3cc4c(c(Br)c3C)OCC4)ncnc2n1C(C1CC1)C1CC1 | 179 to 180
26 | O=C(C[C@@H](CCCC1CCCCC1)c1nc(CNC2CCOCC2)no1)NO | 109 to 110

Row | Compound | melting point [°C]
27 | CCC(=O)N1CCC(=O)c2cc(Cl)c(Cl)cc21 | 135 to 137
28 | CC(C)(C)C(=O)Nc1cc2c(O)n(I)cnc-2n1 | > 240
29 | Oc1ccc(Oc2ccc(O)c(Br)c2)cc1Br | 106
30 | CN1C(=O)N(c2ccc([N+](=O)[O-])c(C(F)(F)F)c2)C(=O)C1(C)C | 116
31 | Cc1cc(O)c(F)cc1Br | 44 to 46
32 | CCC(CC)c1nn(-c2ccc(C(F)(F)F)nn2)cc1CCCO | 86 to 87
33 | CC(C)(C)N1CCN(c2cc3c(cc2F)c(=O)c(C(=O)O)cn3C2CC2)CC1 | 257 to 260
34 | O=[N+]([O-])c1ccc(N2CCCNCC2)cc1 | 115 to 116
35 | ON=CCc1ccccc1 | 90 to 94
36 | CC(=O)[C@H]1CC=C(C)C(=O)C1 | 35
37 | CN(C)S(=O)(=O)c1ccc2c(c1)S(=O)(=O)N=C1CCCN12 | 251 to 253
38 | CC(=O)Nc1ccc2c(c1)[nH]c(=O)c(=O)n2CP(=O)(O)O | 120
39 | CC1C(c2ccc([N+](=O)[O-])cc2)CC(=O)N1C (stereo unspecified) | 94 to 95
40 | CC(=O)Nc1cccc(C#Cc2ccc(OC3CN4CCC3CC4)nn2)c1 (stereo unspecified) | 132 to 134
41 | CCC(CC)Nc1cc(C)nc(Oc2c(C)cc(Cl)cc2C)c1[N+](=O)[O-] | 152 to 154
42 | CCCCOc1cc2c(cc1C(=O)NC)CC(N(CCC)CCC)C2 (stereo unspecified) | 129 to 130
43 | CC1(C)CC(=O)c2cc(Br)ccc21 | 117 to 118
44 | CC(=O)OCC1OC(n2cnc(C#N)n2)C(OC(C)=O)C1OC(C)=O (stereo unspecified) | 96 to 97
45 | O=C(Nc1ccc(-n2nc(C(F)(F)F)cc2C(F)(F)F)cc1)c1ccc(F)cc1Cl | 155 to 157
46 | N#Cc1cnn2c1N(C(=O)CN1CCN(Cc3ccccc3F)CC1)CC=C2c1cccc(C(F)(F)F)c1 | 188 to 190
47 | CCCn1nc(C)c(C#N)c1N | 104 to 105
48 | COc1ccc(CN2CCc3c(cnc4[nH]ncc34)C2)cc1 | 184 to 186
49 | CC(Oc1ccc([N+](=O)[O-])cc1)c1nnc(N=C=O)s1 (stereo unspecified) | 215 to 221
50 | COc1ccc(C=CC(=O)C2CC2)cc1OC | 89 to 91
51 | OCc1ccc(I)c(Cl)c1 | 80 to 82
52 | CC(C)(C)OC(=O)N1CCN(c2nccs2)CC1 | 114 to 116

Further lines, results first:

Row | melting point [°C] | Compound
53 | 162 to 164 | OC1(c2ccncc2)Cc2ccccc2C2=NCCN21 (stereo unspecified)
54 | 133 to 134 | CCOC(=O)c1ccc(OCc2nc(-c3ccco3)oc2C)c(OC)c1
55 | 170 | COc1ccc(CN(C)CCOc2ccc(NC(=O)c3cc(SC)cc4c(=O)c5ccccc5[nH]c34)cc2)cc1OC
56 | 158 | CCOC(=O)C1=C(C)NN=C(c2ccco2)C1c1ccccc1 (stereo unspecified)
57 | 160 to 164 | O=C(O)Cc1ccc(F)cc1Sc1ccc([N+](=O)[O-])cc1
58 | > 300 | Cc1[nH]c(=O)cc2c1CC(c1ccncc1)CC2 (stereo unspecified)
59 | 288 to 290 | Cc1[nH]c(C(=O)N2CCC(O)CC2)c(C)c1-c1nc2ccc(C(=O)c3ccccc3)cc2[nH]1
60 | 129 | Cc1ccc(CCN2CCN(c3nsc4ccccc34)CC2)c2c1C(C)(C)CC(=O)N2
61 | 117 to 118 | CNC(=O)C(C)Oc1ccc(Oc2ccc(Cl)cc2)cc1 (stereo unspecified)
62 | 228 | CC(C)(C)S(=O)(=O)c1ccccc1NC(=O)N[C@@H](Cc1ccc(NC(=O)c2c(Cl)cncc2Cl)cc1)C(=O)O
63 | 195 to 198 | COc1cc(OC)nc(Oc2ccc3ncccc3c2C(=O)O)n1
64 | 148 | Cc1c(C(=O)O)cnn1-c1ccc(F)c(F)c1
65 | 188 to 190 | Cn1c(=O)cc(CBr)c2ccccc21
66 | 176 to 178 | Cc1csc2nc(=O)n(C)c(-c3ccccc3F)c12
67 | 118 to 121 | O=C(Nc1ccc(S(=O)(=O)C(F)(F)F)cc1)Nn1cnc2ccccc2c1=O
68 | 93 to 95 | CCc1nn(C(=O)CCCN2CCOCC2)c(CC)c1CCCCCCOc1ccc(OC)cc1Cl
69 | 113 | COc1ccc(N=C(C#Cc2ccccc2)N2CCN(Cc3ccc(C)cc3)CC2)cc1Cl
70 | 124 to 126 | Cc1ccc(SC(C#N)c2ccc(C(=O)c3cccs3)cc2)cc1 (stereo unspecified)
71 | 214 to 216 | O=C(Nc1ccc(Cl)cc1)c1cc(Cl)c2cccnc2c1O
72 | 188 to 191 | CCCCC#Cc1nc(N)n2nc(-c3ccco3)nc2n1
73 | 62 to 64 | COc1cccc2c(=O)c(-c3cccc(C(F)(F)F)c3F)nn(CCCNS(C)(=O)=O)c12
74 | 122 to 123 | CCOC(=O)c1csc(Cc2ccc([N+](=O)[O-])cc2)n1
75 | 140 to 141 | CC1=Nc2ccccc2N(Cc2ccccc2)C(=O)C1Cc1ccccc1 (stereo unspecified)
76 | 126 to 136 | COc1ccc(C(=O)Nc2ccccc2CC(C)C2CCCCN2C)cc1 (stereo unspecified)
77 | 174 | CNC(=O)c1cccc(NC(=O)COc2ccc3ccccc3c2)c1

Row | melting point [°C] | Compound
78 | 168 to 196 | CCOC(=O)c1c(Nc2c(C)cc(Br)cc2C)n[nH]c1C
79 | 234 to 236 | COc1cc2c(cc1Cl)CC(=O)NN=C2c1ccc(N)cc1
80 | 156 to 158 | CCOc1ccc(NS(=O)(=O)c2ccc(NN=CCCCN3C(=O)c4ccccc4C3=O)cc2)cc1
81 | 48 to 50 | CCOC(=O)CCc1cccc(C(=O)c2cccc(C(=O)OCC)c2)c1C=CCCCCO
82 | 285 to 287 | Cc1cc2c(-c3cccc(-c4noc(=O)[nH]4)c3)c(CC(=O)Nc3ccc(F)cc3C(F)(F)F)c(=O)oc2cc1Cl
83 | 162 to 164 | CCC(=O)c1ccc2c(ccn2S(=O)(=O)c2ccc(C)cc2)c1
84 | 204 to 205 | Cn1c(=O)n(-c2ccnc(N)c2)c2ccccc21
85 | 167 to 168 | COC(=O)C=Cc1ccc(OCc2nc(-c3ccccc3)oc2C)c(F)c1
86 | 102 to 105 | Cc1cc(Cn2cnc(Cl)c2CC#N)ccc1OCc1ccccc1
87 | 107 to 109 | CC(=O)c1cn(S(=O)(=O)c2ccccc2)c2nccc(OC3CCCCC3)c12
88 | 147 to 148 | CC(=O)NC(CSC(c1ccccc1)(c1ccccc1)c1ccccc1)C(=O)NCCSC(=O)C(C)C (stereo unspecified)
89 | 58 | C=COc1ccc(C(=O)c2ccccc2)cc1
90 | 115 | Cc1cc(C)c2c(c1)cc(C(=O)OCc1ccccc1)n2CC(=O)OC(C)(C)C
91 | 134 to 142 | O=C(Oc1ccccc1)N1CCC2(CC1)SC(c1cccc(F)c1)c1ccccc12 (stereo unspecified)
92 | 244 to 247 | Nc1c(-c2ccc(-c3ccc(F)cc3F)cc2)nc2ccccc2c1C(=O)O
93 | 141 to 145 | COC(=O)c1ccc(CCC(C)(C)NCC(O)c2cc3ccccc3o2)cc1 (stereo unspecified)
94 | 145 to 147 | CN(CCc1ccccc1)C(=O)C(O)C(O)c1ccccc1 (stereo unspecified)
95 | 64 to 66 | CCOC(=O)c1ccc(NCCC[Si](C)(C)C)cc1
96 | 149 to 152 | O=C(c1cccs1)c1cnn2c(-c3cccc(NCc4ccc(Cl)cc4)c3)ccnc12
97 | 217 to 219 | N#CCc1c[nH]c2ccc(NC(=O)Nc3ccccc3)cc12
98 | 200 to 207 | CNC(=O)c1ccccc1Nc1nc(Nc2ccc3c(c2)N(C)CCN(S(C)(=O)=O)C3)ncc1Cl
99 | 77 to 78 | Cc1ccc(-c2ccccc2)c(C)c1CO
100 | 96.7 | CN1CCC(OC(c2ccccc2)c2nc3cccc(N)c3[nH]2)CC1 (stereo unspecified)
101 | 143 to 144 | COc1ccc(-n2nc(Sc3cccc(OC)c3)c(C)c(C#N)c2=O)cc1
